A value given as a limit tells only on which side of the number the result lay.

The target in the test is T1, human mGlu2 receptor (Homo sapiens, UniProt Q14416).
T1 construct: expressed in transfected cells; host or cells: HEK293
T1 sequence (Q14416 19-872): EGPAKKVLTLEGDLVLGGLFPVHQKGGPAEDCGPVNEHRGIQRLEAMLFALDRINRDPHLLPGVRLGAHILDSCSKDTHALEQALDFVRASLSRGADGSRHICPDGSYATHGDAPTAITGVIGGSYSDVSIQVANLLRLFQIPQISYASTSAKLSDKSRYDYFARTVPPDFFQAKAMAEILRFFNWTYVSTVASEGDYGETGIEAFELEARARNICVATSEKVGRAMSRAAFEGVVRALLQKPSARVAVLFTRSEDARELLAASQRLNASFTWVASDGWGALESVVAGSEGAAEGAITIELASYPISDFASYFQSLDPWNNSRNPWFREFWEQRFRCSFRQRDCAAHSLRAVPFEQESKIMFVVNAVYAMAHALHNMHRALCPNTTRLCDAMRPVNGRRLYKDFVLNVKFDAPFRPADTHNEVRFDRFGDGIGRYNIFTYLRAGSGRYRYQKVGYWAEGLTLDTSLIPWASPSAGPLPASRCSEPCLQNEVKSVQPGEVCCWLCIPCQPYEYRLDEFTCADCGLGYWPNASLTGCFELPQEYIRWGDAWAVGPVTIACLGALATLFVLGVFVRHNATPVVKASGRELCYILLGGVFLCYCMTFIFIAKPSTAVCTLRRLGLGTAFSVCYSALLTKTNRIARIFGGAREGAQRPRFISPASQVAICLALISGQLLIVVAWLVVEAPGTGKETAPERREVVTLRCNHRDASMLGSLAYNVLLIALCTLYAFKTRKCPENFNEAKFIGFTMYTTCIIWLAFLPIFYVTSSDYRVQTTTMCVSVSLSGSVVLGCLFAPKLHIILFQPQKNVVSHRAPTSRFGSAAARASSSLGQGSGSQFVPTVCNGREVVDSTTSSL
Put plainly: FLIPR intracellular Ca2+ assay, potentiation of glutamate response in HEK293 clone expressing mGlu2 receptor, rGLAST and Galpha16. The conditions noted are these: 1 μM glutamate added ten minutes after test compound, HEK293 cells with human mGlu2, rGLAST, Galpha16, read-out: EC50 values of potentiation effect to glutamate. Format: cell-based. The essentials: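 HEK293 cells stably expressing human mGlu2, rat GLAST and Gα16 were loaded with 2 µM Fluo-4 AM and intracellular Ca2+ read by FLIPR. Compound added alone (agonism), then with submaximal glutamate (e.g. 1 µM; potentiation). Background-subtracted peaks normalized to 100 µM glutamate response; EC50 from four-parameter fit.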
Turning to `CCCC(=O)c1ccc(NCc2c[nH]nc2-c2cccc(C(F)(F)F)c2)cc1OC` [Example 434, 1-(2-Methoxy-4-{[3-(3-trifluoromethyl-phenyl)-1H-pyrazol-4-ylmethyl]-amino}-phenyl)-butan-1-one], the concentration giving a half-maximal response (EC50) (commonly the concentration giving half of the maximal effect) is less than 1000 nM.

Take `CCCc1c(NCc2c[nH]nc2-c2cccc(C(F)(F)F)c2)ccc(C(C)=O)c1O` [Example 436, 1-(2-Hydroxy-3-propyl-4-{[3-(3-trifluoromethyl-phenyl)-1H-pyrazol-4-ylmethyl]-amino}-phenyl)-ethanone]: the EC50 lay within 1000 to 10000 nM.

For the compound `CCCC(=O)c1ccc(NCc2c[nH]nc2-c2ccc(Cl)cc2)cc1OC(CC)CC` [Example 437, 1-[4-{[3-(4-Chloro-phenyl)-1H-pyrazol-4-ylmethyl]-amino}-2-(1-ethyl-propoxy)-phenyl]-butan-1-one], the EC50 fell in the range of 1000 to 10000 nM.

Consider `CC(=O)c1ccc(NCc2c[nH]nc2-c2ccc(Cl)cc2)c(C)c1O` [Example 440, 1-(4-{[3-(4-Chloro-phenyl)-1H-pyrazol-4-ylmethyl]-amino}-2-hydroxy-3-methyl-phenyl)-ethanone], for which the EC50 was less than 1000 nM.

With `O=C(c1ccc(OCc2c[nH]nc2-c2cccc(C(F)(F)F)c2)cc1)C1CCCC1` [Example 442, Cyclopentyl-{4-[3-(3-trifluoromethyl-phenyl)-1H-pyrazol-4-ylmethoxy]-phenyl}-methanone], the EC50 was less than 1000 nM.

Turning to `COC(=O)c1ccc(NCc2c[nH]nc2-c2ccc(Cl)cc2)cc1` [Example 443, 4-{[3-(4-Chloro-phenyl)-1H-pyrazol-4-ylmethyl]-amino}-benzoic acid methyl ester], the EC50 is 1000 to 10000 nM.

In the case of `CCC(CC)Oc1cccc(N(Cc2c[nH]nc2-c2ccc(C(F)(F)F)cc2)S(=O)(=O)CC(F)(F)F)c1` [Example 454, 2,2,2-Trifluoro-ethanesulfonic acid [3-(1-ethyl-propoxy)-phenyl]-[3-(4-trifluoromethyl-phenyl)-1H-pyrazol-4-ylmethyl]-amide], the EC50 was in the range of 1000 to 10000 nM.

Turning to `CCCC(C)Oc1cccc(N(Cc2c[nH]nc2-c2ccc(C(F)(F)F)cc2)S(=O)(=O)CC(F)(F)F)c1` (centres unmarked) [Example 455, 2,2,2-Trifluoro-ethanesulfonic acid [3-(1-methyl-butoxy)-phenyl]-[3-(4-trifluoromethyl-phenyl)-1H-pyrazol-4-ylmethyl]-amide], the EC50 is 1000 to 10000 nM.

With `CCC(C)Oc1cccc(N(Cc2c[nH]nc2-c2ccc(C(F)(F)F)cc2)S(=O)(=O)CC(F)(F)F)c1` (centres unmarked) [Example 456, 2,2,2-Trifluoro-ethanesulfonic acid (3-sec-butoxy-phenyl)-[3-(4-trifluoromethyl-phenyl)-1H-pyrazol-4-ylmethyl]-amide], the 50% effective concentration (EC50) lay within 1000 to 10000 nM.

With `CCC(C)COc1cccc(N(Cc2c[nH]nc2-c2ccc(C(F)(F)F)cc2)S(=O)(=O)CC(F)(F)F)c1` (centres unmarked) [Example 457, 2,2,2-Trifluoro-ethanesulfonic acid [3-(2-methyl-butoxy)-phenyl]-[3-(4-trifluoromethyl-phenyl)-1H-pyrazol-4-ylmethyl]-amide], the EC50 lay within 1000 to 10000 nM.

`CC(C)(C)c1n[nH]cc1CN(c1cccc(OC2CCCC2)c1)S(=O)(=O)CC(F)(F)F` [Example 458, 2,2,2-Trifluoro-ethanesulfonic acid (3-tert-butyl-1H-pyrazol-4-ylmethyl)-(3-cyclopentyloxy-phenyl)-amide]: the concentration for a half-maximal effect (EC50) fell in the range of 1000 to 10000 nM.

Take `CCCC(=O)c1ccc(NCc2c[nH]nc2C)cc1` [Example 475, 1-{4-[(3-Methyl-1H-pyrazol-4-ylmethyl)-amino]-phenyl}-butan-1-one]: the EC50 fell in the range of 1000 to 10000 nM.

Consider `CCCC(=O)c1ccc(NCc2c[nH]nc2CCC)cc1` [Example 476, 1-{4-[(3-Propyl-1H-pyrazol-4-ylmethyl)-amino]-phenyl}-butan-1-one], for which the EC50 lay in the range of 1000 to 10000 nM.

In the case of `CCCC(=O)c1ccc(NCc2c[nH]nc2C(C)C)cc1` [Example 477, 1-{4-[(3-Isopropyl-1H-pyrazol-4-ylmethyl)-amino]-phenyl}-butan-1-one], the EC50 lay in the range of 1000 to 10000 nM.

Consider `CCCC(=O)c1ccc(NCc2c[nH]nc2CC)cc1` [Example 478, 1-{4-[(3-Ethyl-1H-pyrazol-4-ylmethyl)-amino]-phenyl}-butan-1-one], for which the half-maximal effective concentration (EC50) is 1000 to 10000 nM.

For the compound `CC(=O)c1ccc(OCc2c[nH]nc2-c2ccc(C(F)(F)F)cc2)cc1` [Example 483, 1-{4-[3-(4-Trifluoromethyl-phenyl)-1H-pyrazol-4-ylmethoxy]-phenyl}-ethanone], the 50% effective concentration (EC50) was in the range of 1000 to 10000 nM.

Take `CC(=O)c1ccc(OCc2c[nH]nc2-c2ccc(C(F)(F)F)cc2)cc1F` [Example 485, 1-{2-Fluoro-4-[3-(4-trifluoromethyl-phenyl)-1H-pyrazol-4-ylmethoxy]-phenyl}-ethanone]: the concentration for a half-maximal effect (EC50) lay within 1000 to 10000 nM.

In the case of `CC(=O)c1ccc(OCc2c[nH]nc2-c2ccc(C(F)(F)F)cc2)cc1C` [Example 487, 1-{2-Methyl-4-[3-(4-trifluoromethyl-phenyl)-1H-pyrazol-4-ylmethoxy]-phenyl}-ethanone], the 50% effective concentration (EC50) lay in the range of 1000 to 10000 nM.

`CC(=O)c1ccc(OCc2c[nH]nc2-c2ccc(C(F)(F)F)cc2)c(C)c1` [Example 488, 1-{3-Methyl-4-[3-(4-trifluoromethyl-phenyl)-1H-pyrazol-4-ylmethoxy]-phenyl}-ethanone]: the EC50 was 1000 to 10000 nM.

Consider `CCC(=O)c1ccc(OCc2c[nH]nc2-c2ccc(C(F)(F)F)cc2)cc1` [Example 489, 1-{4-[3-(4-Trifluoromethyl-phenyl)-1H-pyrazol-4-ylmethoxy]-phenyl}-propan-1-one], for which the EC50 is less than 1000 nM.

For `CCCCC(=O)c1ccc(OCc2c[nH]nc2-c2ccc(C(F)(F)F)cc2)cc1` [Example 490, 1-{4-[3-(4-Trifluoromethyl-phenyl)-1H-pyrazol-4-ylmethoxy]-phenyl}-pentan-1-one], the EC50 is less than 1000 nM.

Consider `CCCCCC(=O)c1ccc(OCc2c[nH]nc2-c2ccc(C(F)(F)F)cc2)cc1` [Example 491, 1-{4-[3-(4-Trifluoromethyl-phenyl)-1H-pyrazol-4-ylmethoxy]-phenyl}-hexan-1-one], for which the concentration giving a half-maximal response (EC50) was less than 1000 nM.

`CCCC(=O)c1ccc(SCc2c[nH]nc2-c2ccc(C(F)(F)F)cc2)cc1` [Example 492, 1-{4-[3-(4-Trifluoromethyl-phenyl)-1H-pyrazol-4-ylmethylsulfanyl]-phenyl}-butan-1-one]: the EC50 fell in the range of 1000 to 10000 nM.

Take `CCCC(=O)c1ccc(OCc2c[nH]nc2-c2ccc(C(F)(F)F)cc2)cc1` [Example 494, 1-{4-[3-(4-Trifluoromethyl-phenyl)-1H-pyrazol-4-ylmethoxy]-phenyl}-butan-1-one]: the EC50 is less than 1000 nM.

Turning to `CCCC(=O)c1ccc(OCc2c[nH]nc2-c2ccc(F)cc2)cc1` [Example 495, 1-{4-[3-(4-Fluorophenyl)-1H-pyrazol-4-ylmethoxy]-phenyl}-butan-1-one], the half-maximal effective concentration (EC50) was less than 1000 nM.

In the case of `CCCC(=O)c1ccc(OCc2c[nH]nc2-c2ccc(Cl)cc2)cc1` [Example 496, 1-{4-[3-(4-Chloro-phenyl)-1H-pyrazol-4-ylmethoxy]-phenyl}-butan-1-one], the EC50 was less than 1000 nM.

In the case of `CCCC(=O)c1ccc(OCc2c[nH]nc2-c2cccc(F)c2)cc1` [Example 497, 1-{4-[3-(3-Fluorophenyl)-1H-pyrazol-4-ylmethoxy]-phenyl}-butan-1-one], the half-maximal effective concentration (EC50) was less than 1000 nM.

`CCCC(=O)c1ccc(OCc2c[nH]nc2-c2cccc(C(F)(F)F)c2)cc1` [Example 498, 1-{4-[3-(3-Trifluoromethyl-phenyl)-1H-pyrazol-4-ylmethoxy]-phenyl}-butan-1-one]: the 50% effective concentration (EC50) is less than 1000 nM.

With `CCCC(=O)c1ccc(OCc2c[nH]nc2-c2ccccc2)cc1` [Example 499, 1-[4-(3-Phenyl-1H-pyrazol-4-ylmethoxy)-phenyl]-butan-1-one], the EC50 was less than 1000 nM.

Consider `CC(=O)c1ccc(NCc2c[nH]nc2-c2ccc(C(F)(F)F)cc2)cc1` [Example 501, 1-(4-{[3-(4-Trifluoromethyl-phenyl)-1H-pyrazol-4-ylmethyl]-amino}-phenyl)-ethanone], for which the EC50 fell in the range of 1000 to 10000 nM.

Consider `CCCC(=O)c1cccc(NCc2c[nH]nc2-c2ccc(C(F)(F)F)cc2)c1` [Example 503, 1-(3-{[3-(4-Trifluoromethyl-phenyl)-1H-pyrazol-4-ylmethyl]-amino}-phenyl)-butan-1-one], for which the EC50 was in the range of 1000 to 10000 nM.

Take `O=C(c1ccccc1)c1ccc(NCc2c[nH]nc2-c2ccc(C(F)(F)F)cc2)cc1` [Example 504, Phenyl-(4-{[3-(4-trifluoromethyl-phenyl)-1H-pyrazol-4-ylmethyl]-amino}-phenyl)-methanone]: the EC50 is 1000 to 10000 nM.

Take `O=C(c1ccc(NCc2c[nH]nc2-c2ccc(C(F)(F)F)cc2)cc1)C(F)(F)F` [Example 506, 2,2,2-Trifluoro-1-(4-{[3-(4-trifluoromethyl-phenyl)-1H-pyrazol-4-ylmethyl]-amino}-phenyl)-ethanone]: the EC50 lay in the range of 1000 to 10000 nM.

As to `CC(=O)c1ccc2c(c1)CCN2Cc1c[nH]nc1-c1ccc(C(F)(F)F)cc1` [Example 507, 1-{1-[3-(4-Trifluoromethyl-phenyl)-1H-pyrazol-4-ylmethyl]2,3-dihydro1H-indol-5-yl}-ethanone], the EC50 lay in the range of 1000 to 10000 nM.

With `CCCC(=O)c1ccc(NCc2c[nH]nc2-c2ccc(F)cc2)cc1` [Example 508, 1-(4-{[3-(4-Fluorophenyl)-1H-pyrazol-4-ylmethyl]-amino}-phenyl)-butan-1-one], the EC50 is less than 1000 nM.

Turning to `CCCC(=O)c1ccc(NCc2c[nH]nc2-c2cccc(Cl)c2)cc1` [Example 509, 1-(4-{[3-(3-Chloro-phenyl)-1H-pyrazol-4-ylmethyl]-amino}-phenyl)-butan-1-one], the EC50 is less than 1000 nM.

Regarding `CCCC(=O)c1ccc(NCc2c[nH]nc2-c2ccccc2Cl)cc1` [Example 510, 1-(4-{[3-(2-Chloro-phenyl)-1H-pyrazol-4-ylmethyl]-amino}-phenyl)-butan-1-one], the EC50 is less than 1000 nM.

`CCCC(=O)c1ccc(NCc2c[nH]nc2-c2cccc(F)c2)cc1` [Example 511, 1-(4-{[3-(3-Fluorophenyl)-1H-pyrazol-4-ylmethyl]-amino}-phenyl)-butan-1-one]: the EC50 was less than 1000 nM.

Source of the values: patent US9242933B2 (AbbVie Deutschland GmbH & Co. KG, priority 2007, dated 2016).
